We go through 6 molecules from article PMC10827914 (Cellular and Molecular Life Sciences: CMLS, 2024).

The subject of one data set is WEHI-164 fibrosarcoma. Briefly: Antitumor activity in WEHI-164 fibrosarcoma-bearing mice. It is filed as in vivo. As to the method: Female BALB/c mice (Charles River Laboratories, Calco, Italy), weighing 16–18 g, were subcutaneously injected into the left flank of 10^6 WEHI-164 cells (ATCC, cat. CRL-1751, Lot. 63,682,839). Dose-finding experiments were performed with groups of six mice treated with G4-TNF (4, 20, or 100 pg/dose in 100 μL of 0.9% sodium chloride containing 100 µg/ml HSA, intraperitoneally injected on day 5) or vehicle. Tumor growth was monitored daily by measuring tumor volume with calipers, as previously described. The animals were sacrificed before the tumor diameter reached 1.0–1.5 cm. To test whether the antitumor activity of G4-TNF was mediated by CD13, tumor-bearing mice (6 animals/group) were treated with a single injection of G4-TNF (100 pg/dose, i.p.) in combination with peptide CNGRC (100 µg/dose) or anti-CD13 mAb R3-63 (25 µg/dose, given 1.5 h i.p. before administration of G4-TNF) 5 days after tumor implantation.
Fig. 3 Effect of G4-TNF on tumor growth and body weight of mice bearing WEHI-164 fibrosarcomas. A Mice bearing subcutaneous WEHI-164 tumors (5–6 mice/groups) were treated 5 days after tumor implantation with a single intraperitoneal injection of G4-TNF (0, 4, 20, or 100 pg). Tumor volume and body weight after treatment were monitored daily. B Effect of mAb R3-63 (anti-murine CD13 antibody, 25 µg) and CNGRC peptide (100 µg) on the antitumor activity of G4-TNF (100 pg) (5–6 mice/group). The arrows indicate the time of treatment. *P < 0.05; **P < 0.01, by Mann–Whitney analysis of the area under the curve for each tumor, with the GraphPad Prism software (mean ± SEM)
A) Mice bearing subcutaneous WEHI-164 tumors (6 mice/groups), were treated 5-6 days after tumor implantation with a single intraperitoneal injection of murine NGR-TNF (0, 25, 50, or 100 pg). Tumor volume and body weight after treatment were monitored daily.
B) Effect of murine TNF (50 pg) on tumor growth and body weight. The arrows indicate the time of treatment (mean ± SEM).

Data set [1] deals with rCD13 (His-tagged recombinant human CD13). Briefly: rCD13 (2 µg/mL) in 60 mM Tris-HCl, pH 7.4. As to conditions: 37°C, up to 16 h.
The subject of another data set is rCD13. Kind of data set: Proteolytic effect of rCD13 on peptide G4 (mass spectrometry). As to conditions: G4 Lot #B 10 mM in 60 mM Tris-HCl pH 7.4; rCD13 0, 0.2, 2 µg/mL; 0, 0.5, 16 h; 37 °C; high resolution mass spectrometry. It is filed as in vitro ADME, human. On the procedure: Peptide G4 (Lot #B, synthetized and analyzed in-house) (10 mM, in 60 mM Tris-HCl, pH 7.4) was incubated with various amounts of rCD13 (0, 0.2 and 2 µg/mL) for 0, 0.5 and 16 h, as indicated, at 37°C. The enzyme activity was stopped by adding 10% acetic acid. Each sample was then desalted using Zip-tip C18 columns (Merck Millipore), dried in a SAVANT centrifuge, resuspended in 8 µl of 10% formic acid, and analyzed by high resolution mass spectrometry, using a Q-Exactive mass spectrometer (Thermo Scientific, Bremen, Germany) equipped with a nano-electrospray ion source (Proxeon Biosystems). Full scan spectra were acquired with the resolution set to 70000 and mass range from 300 to 1500 m/z. The mass spectra were deconvoluted using the Xtract option within the QualBrowser application of the Thermo Xcalibur software v.4.2.47.

Data set [2] deals with T1, recombinant human CD13 (rCD13) (Homo sapiens, UniProt P15144).
T1 construct: consisting of the CD13 extracellular domain expressed in HEK-293 cells; His-tag; purchased Sino Biological 10051-H08H; host or cells: HEK-293 cells
Kind of data set: rCD13 enzyme inhibition assay, L-alanine 7-amido-4-methylcoumarin substrate. It is filed as biochemical. On the procedure: Recombinant CD13 (rCD13) enzyme activity and inhibition assays were performed as described previously using L-alanine-p-nitroanilide or L-alanine 7-amido-4-methylcoumarin as substrates in 60 mM Tris–HCl, pH 7.4, or 60 mM potassium phosphate buffer, pH 7.4. Mixtures containing peptides at various concentrations, rCD13 (0.2 µg/mL), and L-alanine-p-nitroanilide substrate (0.5 mM) in 60 mM potassium phosphate buffer, pH 7.4 (total volume, 0.1 ml) were prepared and left to react for 30 min at 37 °C. The products were then analyzed using a plate reader (iMark Microplate Absorbance Reader; Bio-Rad). Alternatively, the assay was performed using 0.1 mM L-alanine 7-amido-4-methylcoumarin in 60 mM Tris–HCl, pH 7.4, as a substrate. Fluorescence intensity of methylcoumarin was measured on an Infinite 200 PRO plate reader (Tecan) using the following settings: excitation wavelength: 341 nm; emission wavelength: 441 nm; excitation bandwidth: 9; emission bandwidth: 20 nm; gain: 109 manual; number of flashes: 25; integration time: 20 µs; lag time: 0 µs; settle time: 0 ms.
The IC50 of each inhibitor was calculated by non-linear regression analysis of inhibition data using GraphPad Prism Software (GraphPad Software, Version 9.00, San Diego, CA). Steady-state enzyme kinetic analyses were performed using various concentrations of L-alanine-p-nitroanilide (0–1.5 mM) and VGCARRYCS peptide (0–900 nM). The initial velocities (Vo) were calculated from the slopes of the first 5 min of reaction. The enzyme inhibitory constant (Ki) was calculated using the competitive enzyme inhibition model in GraphPad Prism Software.
Fig. 2 G4 recognizes soluble forms of CD13, with higher affinity and selectivity than bestatin, and the membrane forms expressed on the surface of HUVEC cells. A Inhibitory effects of G4 and bestatin on the enzymatic activities of different aminopeptidases (rCD13, APA, and APB). Various amounts of G4 or bestatin were incubated with rCD13 (0.2 µg/mL in 60 mM Tris–HCl pH 7.4), APA (0.2 µg/mL in 60 mM Tris–HCl pH 7.4, 50 mM calcium chloride, 200 mM sodium chloride) or APB (0.2 µg/mL in 60 mM Tris–HCl pH 7.4, 100 mM potassium chloride) and the corresponding substrates at 0.1 mM (L-alanine-7-amido-4-methylcoumarin for rCD13, L-glutamic acid γ-(7-amido-4-methylcoumarin) for APA, and L-arginine-7-amido-4-methylcoumarin for APB). The mixtures were incubated for 30 min at 37 °C, and the cleavage of each substrate was monitored by measuring the fluorescence of methylcoumarin (λex 341 nm; λem 441 nm) using an Infinite 200 PRO plate reader (Tecan). Three independent experiments were performed for each enzyme. The results of one representative experiment for each enzyme are shown (mean ± SEM, duplicates). B Inhibitory effects of G4 and bestatin on soluble CD13 immunocaptured from human serum (sCD13) using microtiter plates coated with anti-CD13 mAb WM15. The microtiter plate was filled with a solution of mAb WM15 (5 μg/ml in DPBS) and incubated overnight at 4 °C. The plate was then washed with DPBS, blocked with 3% bovine serum albumin (BSA) in DPBS, and filled with human serum containing soluble CD13 (diluted 1:2 with DPBS containing 2% BSA). After washing with DPBS, mixtures of G4 or bestatin (0–100 µM in 60 mM Tris–HCl, pH 7.4) and L-alanine p-nitroanilide hydrochloride substrate (4.5 mM in 60 mM Tris–HCl, pH 7.4) were added and left to incubate at 37 °C for 2 h. Substrate cleavage by sCD13 dissociated from mAb WM15 was then monitored by measuring the absorbance at 405 nm in each well using a plate reader (Bio-Rad). The results of one experiment performed in triplicate are shown (mean ± SEM). C Effect of G4 on the binding of the anti-CD13 mAb WM15 to HUVEC. HUVEC were seeded at a density of 2 × 10^5 cells in 100 µL DPBS supplemented with 5% normal human serum (NHS) and incubated with a mixture of G4 peptide (0, 0.1, 1, and 10 µM) and mAb WM15 (0 or 0.13 nM) as indicated. […]

For data set [3], the target named is T2, His-tagged recombinant human CD13 (rCD13) (human, UniProt P15144 33-967).
T2 construct: aminopeptidase N / CD13, human, extracellular domain (soluble ectodomain); also called recombinant soluble CD13; recombinant CD13 ectodomain; source: bought: Sino Biological (cat. 10051-H08H), expressed in HEK-293 cells
Kind of data set: steady-state enzyme inhibition kinetics; rCD13 with L-alanine-p-nitroanilide (0-1.5 mM) and … (0-900 nM), 60 mM potassium phosphate buffer, pH 7.4, 37 °C; initial velocities of the first 5 min; competitive enzyme inhibition model (GraphPad Prism). As to conditions: both partners purified.

Data set [4] has as its target His-tagged recombinant human CD13 (rCD13) (human) (UniProt P15144).

Values joined by “and” are separate entries in the source; they are usually repeats but may differ in a detail not shown here. Identical values can stand only once. “Also recorded” adds a separate entry of the source. Where a SMILES comes first, the peptide text is derived from it. Bridges are numbered along the chain shown (N, C = ends). Where no end group is shown, it is not given here.

T2 sequence (P15144 33-967): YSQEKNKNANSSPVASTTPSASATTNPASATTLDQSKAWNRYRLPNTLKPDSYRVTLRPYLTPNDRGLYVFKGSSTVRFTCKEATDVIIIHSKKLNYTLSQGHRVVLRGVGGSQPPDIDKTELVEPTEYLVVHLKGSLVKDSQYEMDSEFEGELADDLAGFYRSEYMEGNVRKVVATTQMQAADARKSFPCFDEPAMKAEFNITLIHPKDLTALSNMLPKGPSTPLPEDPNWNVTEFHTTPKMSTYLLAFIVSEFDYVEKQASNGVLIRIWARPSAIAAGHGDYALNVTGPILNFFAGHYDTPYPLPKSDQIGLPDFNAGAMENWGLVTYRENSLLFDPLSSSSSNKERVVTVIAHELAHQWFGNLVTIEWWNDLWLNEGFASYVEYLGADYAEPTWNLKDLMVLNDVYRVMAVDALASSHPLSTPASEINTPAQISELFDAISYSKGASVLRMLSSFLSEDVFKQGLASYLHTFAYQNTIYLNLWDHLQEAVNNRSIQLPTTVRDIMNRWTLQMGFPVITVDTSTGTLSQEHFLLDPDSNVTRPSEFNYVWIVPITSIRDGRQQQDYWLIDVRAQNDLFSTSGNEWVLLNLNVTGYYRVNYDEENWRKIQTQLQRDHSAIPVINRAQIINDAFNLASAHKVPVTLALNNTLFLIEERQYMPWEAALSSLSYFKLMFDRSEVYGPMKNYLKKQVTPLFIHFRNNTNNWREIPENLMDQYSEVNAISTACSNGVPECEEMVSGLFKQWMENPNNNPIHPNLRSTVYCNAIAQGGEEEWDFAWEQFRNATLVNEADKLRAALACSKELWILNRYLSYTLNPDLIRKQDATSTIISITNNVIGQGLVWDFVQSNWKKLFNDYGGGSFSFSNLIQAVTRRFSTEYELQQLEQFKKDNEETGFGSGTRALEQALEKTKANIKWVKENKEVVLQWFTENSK
T1 sequence (P15144 33-967 limits assumed): as the sequence (P15144 33-967) above
His-tagged recombinant human CD13 (rCD13) (human), sequence (P15144 33-967): as above

In the case of CNGRC [reference compound], in the data set with WEHI-164 fibrosarcoma (G4-TNF 100 pg i.p. with mAb R3-63 25 µg (1.5 h before) or CNGRC 100 µg), the “Effect on the antitumor activity of G4-TNF” value is on record as “markedly reduced (almost completely)”.

Take VGCARRYCS: in data set [1], the cleaved bond result is recorded as “Val1-Gly2, 16 h; also recorded: Gly2-Cys3, 16 h”.

Regarding `CC(C)[C@H](N)C(=O)NCC(=O)N[C@H]1CSSC[C@@H](C(=O)N[C@@H](CO)C(=O)O)NC(=O)[C@H](Cc2ccc(O)cc2)NC(=O)[C@H](CCCNC(=N)N)NC(=O)[C@H](CCCNC(=N)N)NC(=O)[C@H](C)NC1=O` [G4] (H-VGCARRYCS-OH; disulfide 3-8), the “Cleavage of the peptide by rCD13 (stability)” value in the data set with rCD13 is “cleavage of Val-1 and Gly-2 was observed only after a long incubation time (16 h) with a large amount of enzyme (2 µg/ml)”. For the same molecule, the IC50 in data set [2] (0.1 mM L-alanine 7-amido-4-methylcoumarin, 60 mM Tris-HCl pH 7.4, fluorescence, mean ± SEM of n independent experiments, read-out: IC50: peptide concentration that inhibits 50% of rCD13 enzymatic activity) was determined as 130 ± 20 nM. Also, the “IC50 of G4 for rCD13 lower than that of bestatin” value in data set [2] (Fig. 2A) is listed as 4–5 fold.

B1: peptide VGCARRYCS (disulfide-bridged, called G4) (peptide)
peptide: VGCARRYCS
modifications: disulfide 3-8 (inferred)
notes: optimised CD13 ligand peptide; also called free G4 peptide; source: synthetic peptide
Take B1: the Ki (in general, the dissociation constant of the complex between target and ligand, obtained from inhibition or displacement) in data set [3] is 21 nM and ~22 nM.

B2: TNF: murine TNF (not linked to G4) (protein)
chain: MSTESMIRDVELAEEALPQKMGGFQNSRRCLCLSLFSFLLVAGATTLFCLLNFGVIGPQRDEKFPNGLPLISSMAQTLTLRSSSQNSSDKPVAHVVANHQVEEQLEWLSQRANALLANGMDLKDNQLVVPADGLYLVYSQVLFKGQGCPDYVLLTHTVSRFAISYQEKVNLLSAVKSPCPKDTPEGAELKPWYEPIYLGGVFQLEKGDQLSAEVNLPKYLDFAESGQVYFGVIAL
For B2, in the data set on WEHI-164 fibrosarcoma (single intraperitoneal injection of 50 pg), the “Antitumor effect (tumor growth)” value was “totally inactive”.

B3: peptide … (disulfide-bridged) (peptide)
peptide: VGCGRRYCSN
modifications: disulfide 3-8 (inferred)
Regarding B3, the IC50 of inhibition of rCD13 enzymatic activity (L-alanine-p-nitroanilide substrate) in data set [4] was determined as 2.01 µM.
